From patent publication US10118893B2, “Method of making complex nano particles and using the same to reduce cell viability” (Umm Al-Qura University, priority 2014, dated 2018)

Key:
HELA = assay: Cytotoxic activity on human tumor cell line HELA; format: cell-based; settings: dose to reduce survival to 50%
Description: (§1) Olylammonium hydrogen selenites hydrogen selenite with its cobalt and platinum complexes were investigated as potential selective, anticancer prodrugs. They were tested by using Ehrlich Acites Carcinoma (EAC) as a model system of mice cell tumor. These compounds were also Tested in vitro on human […] monolayer tumor cell lines: MCF7 (Breast carcinoma), HEPG2 (liver carcenoma), U 251 ([…]) and HCT116 (colon carcinoma).
(§2) The results of the cytotoxic activity on human tumor cell lines were determined according to the dose values of drug exposure for cell lines to reduce survival to 50% (Ic50). The experimental results recorded in Table (3).

[1] = Critical micelle concentration (CMC) and surface parameters of the surfactants; format: physicochemical; set-up: PC20: unit not given here
Description: That fact could be explained from the unique property of the metal complexes in water. That is the complexes retain its unity in their solutions, which increased their volume in the aqueous media and then repulsion is occurred between the hydrophobic chain and water molecules. […] The efficiency “PC20” increase with increasing molar ratio of methylene units. These due to the fact that the efficiency of adsorption at interfaces increase linearly with increase in the carbon atoms in hydrophobic group. In case of the prepared parent cationic surfactants by increasing the number methylene units Maximum surface excess Γmax increases, this due to migration of molecules to the water-air interface. The consequence increase of Γmax leads to crowdiness occurred at the interface which causing decrease in Minimum area per molecule Amin values. That is due to the minimum surface area decrease with increasing the hydrophobic chain length of the synthesized surfactant molecules. The standard free energies of micellization ΔG° mic and adsorption ΔG° ads values are always negative indicating the spontaneously of these two processes but there is more increase in negativity of ΔG° ads rather than those of micellization indicating the tendency of the molecules to be adsorbed at the interface.

HCT116 (colon carcinoma) = assay: Cytotoxic activity on human tumor cell line HCT116; format: cell-based; settings: dose to reduce survival to 50%
Description: as §1, §2

HEPG2 (liver carcenoma) = assay: Cytotoxic activity on human tumor cell line HEPG2; format: cell-based; settings: dose to reduce survival to 50%
Description: as §1, §2

[2] = tested on: Ehrlich ascites carcinoma (EAC) cells; assay: Antitumor activity using Ehrlich ascites carcinoma (EAC), in vitro percentage of nonviable cells; format: cell-based, mice; settings: NVC %
Description: as §1
Ehrlich ascites carcinoma cells as a model system was based on the finding that it is excellent tool for studying the biological behavior of malignant tumors and drug action with cells. A line of Ehrlich ascites carcinoma (EAC) which used in the present study had been kindly supplied from National Cancer Institute, Cairo, Egypt, and maintained in female Swiss albino mice through weekly […] transplantation of 2.5×10^6 tumor cells/mouse. EAC cells were obtained by needle aspiration with aseptic condition. The ascetic fluid was diluted with sterile saline so that 0.1 ml contains 2.5×10^6 cells counted microscopically using a haemocytometer. In vitro studying of these compounds antitumor activity was determined according to the percentage of nonviable cells (NVC %) which was calculated by the following equation NVC %=[number of NVC/total number of cells][…].

MCF7 (Breast carcinoma) = assay: Cytotoxic activity on human tumor cell line MCF7; format: cell-based; settings: dose to reduce survival to 50%
Description: as §1, §2

[3] = tested on: sulphur reducing bacteria; assay: Antibacterial activity against sulphur reducing bacteria, inhibition zone; format: cell-based
Description: The results of the synthesized cationic surfactants against sulphur reducing bacteria recorded in Table 4.

SMILES: CCCCCCCC/C=C\CCCCCCCCN.O=[Se](O)O [IIa, olylammonium hydrogen selenite]
- HELA (IC50) (HELA): does not reach to Ic50
- Δ Gads/Amin [1]: −46.8
- ΠCMC [1]: 39 mN/m
- CMC × 10−3 ([1]; critical micelle concentration, values × 10−3): 1.3
- PC20 ([1]; efficiency): 3.8
- Γmax × 10−11 ([1]; maximum surface excess, values × 10−11): 10.6 Mole/cm^2
- A min ([1]; minimum area per molecule): 1.6 nm2
- Δ Gads ([1]; standard free energy of adsorption): −67.7
- Δ Gmic ([1]; standard free energy of micellization): −34.1
- γCMC ([1]; surface tension at CMC): 33 mN/m
- HCT116 (IC50) (HCT116 (colon carcinoma)): does not reach to Ic50
- HEPG2 (IC50) (HEPG2 (liver carcenoma)): does not reach to Ic50
- Percent nonviable cells ([2]; Conc. 25 μg/ml): 10%
- Percent nonviable cells ([2]; Conc. 50 μg/ml): 20%
- Percent nonviable cells ([2]; Conc. 100 μg/ml): 40%
- MCF7 (IC50) (MCF7 (Breast carcinoma)): does not reach to Ic50
- Inhibition zone diameter [3]: 25 mm/mg sample
